Data taken from PubChem BioAssay AID1996.
In brackets after ≈: the same amount, converted by molar mass.

Settings: buffer; pH 7.4; 200.0 µM

| SMILES | solubility kinetic [µg/mL] |
| --- | --- |
| CCOC(=O)CN=C/C(C(C)=O)=C(/C)O | > 32 |
| Cc1cc2c(cc1C)C(c1ccsc1)CC(=O)N2 (stereo not given) | 5.1 (≈ 19.8 µM) |
| Cc1csc(SCC(=O)NCc2ccccc2)n1 | > 41.8 |
| Cc1ccccc1OCCC(=O)OCC(=O)NC1CC1 | > 41.6 |
| COc1ccc(C(=O)NCC(=O)OCC(=O)c2c(C)[nH]c3ccccc23)cc1OC | 6.1 (≈ 14.9 µM) |
| OC1(C#CCN2CCCC2)c2ccccc2-c2ccccc21 | 11.4 (≈ 39.4 µM) |
| Oc1ccccc1-c1nc2ccccc2nc1-c1ccccc1 | 25.1 (≈ 84.1 µM) |
| Cc1cccc(C(=O)NCC(c2ccco2)N2CCc3ccccc32)c1 (stereo not given) | 8.2 (≈ 23.7 µM) |
| Cc1cc(SCC(=O)c2ccc(Cl)cc2)nc(=O)[nH]1 | 16.5 (≈ 56 µM) |
| O=C(NC(=S)Nc1ccccc1O)c1cncc(Br)c1 | 9.4 (≈ 26.7 µM) |
| CCCOc1ccc(-c2nc(N3CCN(C)CC3)c3ccccc3n2)cc1 | 14.5 (≈ 40 µM) |
| Cc1ccc(CC2C(=O)N(c3ccccc3)C(=O)C2C)cc1 (stereo not given) | 7.6 (≈ 25.9 µM) |
| O=C(O)c1ccccc1C(=O)NCC(O)c1ccccc1 (stereo not given) | > 42.8 |
| COc1ccc(CNc2ccc(N3CCOCC3)cc2)cc1 | 40.9 (≈ 137 µM) |
| O=C(COC(=O)c1cccc(F)c1)NC(=O)NC1CCCC1 | 41.4 (≈ 134 µM) |
| Cc1[nH]c2ccccc2c1C(=O)CN1C(=O)C(=O)N(C2CCCC2)C1=O | 3.2 (≈ 9.06 µM) |
| Cc1nn(CC(=O)NCCC2=CCCCC2)c(C)c1S(=O)(=O)N(C)C | > 55.3 |
| O=C1c2ccccc2C(=O)N1Cc1ccccc1F | 1.5 (≈ 5.88 µM) |
| FC(F)(F)c1cccc(-c2nc(-c3ccncc3)no2)c1 | 0.4 (≈ 1.37 µM) |
| Cc1cccn2c(=O)nc(SCC(=O)NCc3ccco3)nc12 | > 49.6 |

| SMILES | solubility kinetic [µg/mL] |
| --- | --- |
| CCN1CCN(S(=O)(=O)c2c(C)cc(C)cc2C)CC1 | > 44.5 |
| Cc1cccc(C)c1NC(=S)NC(C)(C)CO | > 37.9 |
| CC(Sc1nc(N)cc(N)n1)C(=O)NCC1CCCO1 (stereo not given) | > 44.6 |
| COc1ccc2[nH]c(C(=O)N3CCN(Cc4ccccc4)CC3)cc2c1OC | 51.8 (≈ 137 µM) |
| COc1ccc([C@@H]2Sc3ccccc3NC(=O)[C@@H]2O)cc1 | 6.2 (≈ 20.6 µM) |
| Cc1ccc(C)c(NC(=O)COC(=O)c2ccc[n+]([O-])c2)c1 | > 45 |
| CN(C)S(=O)(=O)c1ccc(Cl)c(C(=O)NC2=NCCS2)c1 | > 52.2 |
| COC(=O)C(NC(C)=O)(Nc1ccc(C)cn1)C(F)(F)F (stereo not given) | > 45.8 |
| CCOc1ccc(CCNC(=O)c2cc(C)on2)cc1OCC | > 47.8 |
| COc1ccc(Cl)cc1/C=C(\C#N)C(N)=O | > 35.5 |
| O=C(O)CCn1c(=O)oc2cc(S(=O)(=O)N3CCCC3)ccc21 | > 51.1 |
| COc1cccc(/C=N/N2CCN(Cc3ccccc3)CC2)c1O | > 48.8 |
| COc1ccc(CN(C)C(=O)c2ccc(NS(=O)(=O)c3ccc4[nH]c(=O)[nH]c4c3)cc2)c(OC)c1OC | > 79 |
| COc1ccc(NS(=O)(=O)c2cc(NC(=O)c3ccccn3)ccc2OC)cc1Br | 3.4 (≈ 6.91 µM) |
| Cc1ccc(C(O)(CCN2CCCCC2)c2ccccc2)cc1.Cl (stereo not given) | > 51.9 |
| Fc1ccccc1OCCn1c(=S)[nH]c2ccccc21 | 6 (≈ 20.8 µM) |
| CCn1c(=O)c([N+](=O)[O-])c(NCC2CCCO2)c2ccccc21 (stereo not given) | 47.5 (≈ 150 µM) |
| COc1ccc(/C(=N/Nc2ncnc3ccccc23)C(=O)O)cc1 | > 48.3 |
| Nc1nc(-c2ccc(Oc3ccccc3)cc2)cs1 | 12.8 (≈ 47.7 µM) |
| Cc1ccc(C(=O)Nc2ccc3ncccc3c2)cc1 | 6.9 (≈ 26.3 µM) |

| SMILES | solubility kinetic [µg/mL] |
| --- | --- |
| S=C(NCCc1ccccc1)NCc1cccc(Cl)c1 | 13.9 (≈ 45.6 µM) |
| Cn1c(O)c(/C=N/NC(=O)c2ccncc2)c(=O)n(C)c1=S | > 47.9 |
| C(#Cc1ccccc1)CN1CCCCC1.Cl | 25.6 |
| CNS(=O)(=O)c1cccc(C(=O)OCC(=O)N2CCN(C(=O)c3ccco3)CC2)c1 | > 65.3 |
| OCC(O)CN(c1ccccc1)c1ccccc1 (stereo not given) | > 36.5 |
| Cc1cc(N/N=C/c2ccc(O)cc2O)nc(N2CCOCC2)n1 | > 49.4 |
| O=C(Nc1ccncc1)c1c(Cl)cccc1Cl | 8.9 (≈ 33.3 µM) |
| N#CC(C#N)=CN=c1ccn(Cc2ccc(Cl)cc2Cl)cc1 | 1.4 (≈ 4.25 µM) |
| CCOC(=O)C1=C[C@]2(CC)CCCN3CCc4c(n1c1ccccc41)[C@@H]32 | 35.5 (≈ 101 µM) |
| CC(C)c1ccc(Nc2ccc(C(=O)O)cc2[N+](=O)[O-])cc1 | > 45 |
| O=S(=O)(NCc1ccccn1)c1ccc(Cl)c(C(F)(F)F)c1 | 16.5 (≈ 47 µM) |
| Cc1ccc(C)n1-c1ccc(C(=O)NCc2cccnc2)cc1 | > 45.8 |
| O=C(OCCCN1CCOCC1)c1ccc(O)c(O)c1 | > 42.2 |
| CCSc1nc2sc3c(c2c(=O)n1-c1ccccc1C)CCN(C)C3 | 53.7 (≈ 145 µM) |
| CCC(Oc1ccccc1)C(=O)Nc1ccccc1N1CCCCC1 (stereo not given) | 0.7 (≈ 2.07 µM) |
| O=S(=O)(c1ccc(Cl)nc1)N1CCCC1 | > 37 |
| CCC1SC(=Nc2cccc(C)c2)NC1=O (stereo not given) | > 35.1 |
| O=C(O)CCC(=O)NN1C(=O)c2ccccc2NC1c1ccc(F)cc1 (stereo not given) | > 53.6 |
| CC(=O)Nc1ccc(S(=O)(=O)N(C)c2ccc(OCCOc3cccc(C)c3)cc2)cc1 | 5 (≈ 11 µM) |
| COc1cccc(CNC(=O)Cc2ccc(-c3ccccc3)cc2)c1 | 5.1 (≈ 15.4 µM) |
